Measurements as given in patent US20240398969A1, “ANTIBODY-DRUG CONJUGATES FOR TREATING INFECTIONS OF HUMAN IMMUNODEFICIENCY VIRUS (HIV)” (priority 2023, published 2024).
Like-named read-outs stand apart in the source and are kept apart here.

Experiments:
Type in all cases: cell-based
HDAC [1] = assay: Cellular HDAC enzymatic assay (FLUOR DE LYS HDAC fluorometric cellular activity assay) in CD4 enriched Jurkat T cells
Protocol: (§1) Cellular HDAC enzymatic assay was conducted for 3 days with the CD4 enriched Jurkat T lymphocyte cells or B lymphocyte cells treated with various amounts of drugs using FLUOR DE LYS® HDAC fluorometric cellular activity assay kit (Enzo Life Sciences, Inc., cat. No: BML-AK503-0001). The assay was performed following the manufacturer's instructions. […] The Fluor de Lys substrate was added in a culture media. After 30 min 37° C., 1 volume of the developer was added. After 15 min 37° C., the fluorophore was excited with 355 nm light and the emitted light (450 nm) was being detected on a fluorometric plate reader (Clariostar: BMG, Buckinghamshire, UK). For each experiment, controls (containing CD4 enriched Jurkat T lymphocyte cells or Ramos B lymphocyte cells and buffer), a blank incubation (containing buffer but no CD4 enriched Jurkat T lymphocyte cells or Ramos B lymphocyte cells) and samples (containing compound dissolved in DMSO or ADCs dissolved in PBS and further diluted in medium) were run in parallel. In each test the blank value was subtracted from both the control and the sample values. The control sample represented 100% of substrate deacetylation. For each sample the fluorescence was expressed as a percentage of the mean value of the controls.

HDAC [2] = assay: Cellular HDAC enzymatic assay (FLUOR DE LYS HDAC fluorometric cellular activity assay) in Ramos B lymphocyte cells
Protocol: as §1

[3] = tested on: Jurkat CD4^+ (human T lymphocyte cells); assay: Cytotoxicity assay, CellTiter-Glo Luminescent Cell Viability Assay, Jurkat; conditions: 72 h, read-out: IC50 value of Luminescent Cell Viability Assay
Protocol: In vitro cytotoxicity assay was conducted for 3 days with the CD4 enriched Jurkat T cells and treated with various amounts of drugs using CellTiter-Glo® Luminescent Cell Viability Assay Kit (Promega, G7571). The assay was performed following the manufacturer's instructions. Briefly, cells were plated in 96-well plates at […] in 100 μl RPMI 1640 medium with 10% heat-inactivated Fetal Bovine Serum. The following day, a serial ten-fold dilution for eight points of drugs (Romidepsin, TMB-355-ADC, and TMB-355) was used. The final concentration in the test was ranging from 1×10^3 nM to 1×10^−4 nM for Romidepsin, from 6.67×10^2 nM to 6.67×10^−5 nM for TMB-355-ADC and TMB-355. The cells were then incubated at 37° C. for 72 h. Subsequently, 100 μL/well of CellTiter-Glo reagent was added and the cells were shaken for 2 minutes and then incubated for an additional 10 minutes at room temperature. After the incubation time, luminescence (light) was measured in a luminometer (Clariostar: BMG, Buckinghamshire, UK). The IC50 corresponds to the drug concentration which achieves 50% activity of untreated control cultures. IC50 values were calculated using the software package Prism 6.0 (GraphPad Software Inc., San Diego, Calif.) with variable slope option.

[4] = tested on: Ramos(human B lymphocyte); assay: Cytotoxicity assay, CellTiter-Glo Luminescent Cell Viability Assay, Ramos; conditions: 72 h, read-out: IC50 value of Luminescent Cell Viability Assay

| Molecule | IC50 (HDAC [1]; read-out: IC50 value of Cellular HDAC enzymatic assay; Jurkat CD4^+ (human T lymphocyte cells), 3 days) [nM] | IC50 (HDAC [2]; read-out: IC50 value of Cellular HDAC enzymatic assay; Ramos (human B lymphocyte), 3 days) [nM] | IC50 ([3]; Homo sapiens, Jurkat) [nM] | IC50 ([4]; Homo sapiens, Ramos) [nM] | IC50 (HDAC [1]; Jurkat CD4^+ (human T lymphocyte cells), 3 days; read-out: IC50 value of Cellular HDAC enzymatic assay) [nM] | IC50 (HDAC [2]; Ramos (human B lymphocyte), 3 days; read-out: IC50 value of Cellular HDAC enzymatic assay) [nM] | IC50 ([3]; Jurkat CD4^+ (human T lymphocyte cells)) [nM] | IC50 ([4]; Ramos (human B lymphocyte)) [nM] |
| --- | --- | --- | --- | --- | --- | --- | --- | --- |
| C/C=C1\NC(=O)[C@H]2CSSCC/C=C/[C@H](CC(=O)N[C@H](C(C)C)C(=O)N2)OC(=O)[C@H](C(C)C)NC1=O [Romidepsin] | 1.6 | 3.9 | 1.6 | 2.2 |  |  |  |  |
| TMB-355 |  |  |  |  | > 667 | > 667 | > 667 | > 667 |
